Data published in article PMC12615753, “Glutathione as a taste modulator: molecular mechanisms of interaction with umami and sweet taste receptors” (Food Chemistry: Molecular Sciences, 2025).

Biological target: T1, hTAS1R1 H71A/rTAS1R3 (UniProt Q7RTX1+Q923K1, H71A)
T1 construct: The cDNA coding region of rTAS1R3 was synthesized with optimized-codon usage for human expression; expressed in transfected cells; host or cells: HEK293T/17
T1 sequence (Q7RTX1 21-841 H71A): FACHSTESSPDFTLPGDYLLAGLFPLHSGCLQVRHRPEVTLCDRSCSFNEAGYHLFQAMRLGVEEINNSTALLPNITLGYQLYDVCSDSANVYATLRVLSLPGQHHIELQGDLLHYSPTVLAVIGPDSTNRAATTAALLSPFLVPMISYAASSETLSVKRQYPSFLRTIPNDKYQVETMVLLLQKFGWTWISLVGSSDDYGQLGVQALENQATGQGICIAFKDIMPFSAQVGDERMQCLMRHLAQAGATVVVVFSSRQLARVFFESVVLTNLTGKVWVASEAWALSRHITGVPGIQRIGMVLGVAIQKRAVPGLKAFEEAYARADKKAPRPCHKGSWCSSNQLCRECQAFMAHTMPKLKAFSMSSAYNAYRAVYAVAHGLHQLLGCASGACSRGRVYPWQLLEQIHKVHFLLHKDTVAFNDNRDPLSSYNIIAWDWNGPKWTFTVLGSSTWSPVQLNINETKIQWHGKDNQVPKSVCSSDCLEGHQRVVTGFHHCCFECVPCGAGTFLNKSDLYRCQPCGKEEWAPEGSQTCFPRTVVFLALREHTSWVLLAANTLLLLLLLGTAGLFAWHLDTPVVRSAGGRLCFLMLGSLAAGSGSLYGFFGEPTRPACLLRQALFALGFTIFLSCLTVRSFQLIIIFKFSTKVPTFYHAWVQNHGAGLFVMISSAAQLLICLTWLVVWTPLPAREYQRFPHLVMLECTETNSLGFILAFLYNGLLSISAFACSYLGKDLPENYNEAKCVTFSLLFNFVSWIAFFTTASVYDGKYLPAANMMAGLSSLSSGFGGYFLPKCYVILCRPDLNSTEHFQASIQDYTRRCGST
T1 sequence (Q923K1 21-858): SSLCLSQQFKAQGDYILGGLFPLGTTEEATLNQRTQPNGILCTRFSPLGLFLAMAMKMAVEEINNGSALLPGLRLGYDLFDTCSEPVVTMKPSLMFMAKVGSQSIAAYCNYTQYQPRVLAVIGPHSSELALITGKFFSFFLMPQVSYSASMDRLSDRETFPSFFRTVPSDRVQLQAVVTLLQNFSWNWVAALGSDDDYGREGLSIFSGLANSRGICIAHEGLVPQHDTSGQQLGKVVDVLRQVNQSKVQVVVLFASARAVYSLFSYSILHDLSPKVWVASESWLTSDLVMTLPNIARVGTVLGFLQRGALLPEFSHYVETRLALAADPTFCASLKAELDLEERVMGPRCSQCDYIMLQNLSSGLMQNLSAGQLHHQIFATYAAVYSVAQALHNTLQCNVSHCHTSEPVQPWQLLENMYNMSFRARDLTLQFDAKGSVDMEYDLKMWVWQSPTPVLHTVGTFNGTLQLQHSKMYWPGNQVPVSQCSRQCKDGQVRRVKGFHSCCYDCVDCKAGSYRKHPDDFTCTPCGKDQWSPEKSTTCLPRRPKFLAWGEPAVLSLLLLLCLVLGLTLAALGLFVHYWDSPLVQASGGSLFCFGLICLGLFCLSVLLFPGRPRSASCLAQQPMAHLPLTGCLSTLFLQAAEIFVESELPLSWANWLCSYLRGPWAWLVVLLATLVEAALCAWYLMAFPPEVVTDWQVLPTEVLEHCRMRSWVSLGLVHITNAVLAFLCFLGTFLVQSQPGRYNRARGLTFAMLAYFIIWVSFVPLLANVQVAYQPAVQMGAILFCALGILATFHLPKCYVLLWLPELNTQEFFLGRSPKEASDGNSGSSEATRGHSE
Assay: Calcium assay, hTAS1R1 mutant co-expressed with rTAS1R3
Assay type: cell-based, human, rat

response to the agonist alone, vs WT (H71A) | SMILES | EC50 | effect of the added compound (1 mM) on the response to L-Glu (H71A) | Max ∆F/F0 (H71A, GSH) | R1 = mutant EC50/WT EC50 (H71A, GSH)
strongly affected | CCCC(CCC)NC(=O)c1ccc2c(c1)OCO2 [S807, N-(heptan-4-yl)benzo[d][1,3]dioxole-5-carboxamide, reference compound] |  |  |  | 
 | N[C@@H](CCC(=O)N[C@@H](CS)C(=O)NCC(=O)O)C(=O)O [GSH, γ-L-glutamyl-L-cysteinyl-glycine] | 2030 ± 416 µM | did not affect | 0.44 ± 0.03 | 0.8
